Broadly, the IC50 is the concentration needed to halve the response being measured.

This is an account of results in patent US20130345215A1, “PYRAZOLOPYRIMIDONE AND PYRAZOLOPYRIDONE INHIBITORS OF TANKYRASE” (Genentech, Inc., priority 2012, published 2013).

Assay [1] has as its target T1, Tankyrase 1 (TNKS1) (Homo sapiens, UniProt O95271).
T1 construct: His6-TNKS1, MW=28.2 KDa (construct: 1088-1327, 1266M)
Nature of the assay: μHTS-TNKS-IWR2 TR-FRET Binding Assay (Example 118), His6-TNKS1. An outline of the steps: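 His6-TNKS1 binding to biotin-IWR2 probe measured by TR-FRET (Eu/APC, 3.5 nM/50 nM stock) in pH 7.4 Tris buffer with DTT, BSA and NP-40; TNKS1 added from 300 nM 5× stock. Compound pre-incubated with probe and enzyme 30 min at 26 °C, then detection reagents 60 min at 26 °C; single point.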
On the technique in general: In TR-FRET formats the signal depends on donor and acceptor labels being close together.

Assay [2] concerns the target T2, tankyrase 2 (TNKS2) (Homo sapiens, UniProt Q9H2K2).
T2 construct: His6-tankyrase 2 (construct: 934-1166) (His6-TNKS2)
Nature of the assay: μHTS-TNKS-IWR2 TR-FRET Binding Assay (Example 118), His6-TNKS2 substituted. The settings on record: procedure in Example 118 with His6-TNKS2.

T1 sequence (O95271 1088-1327): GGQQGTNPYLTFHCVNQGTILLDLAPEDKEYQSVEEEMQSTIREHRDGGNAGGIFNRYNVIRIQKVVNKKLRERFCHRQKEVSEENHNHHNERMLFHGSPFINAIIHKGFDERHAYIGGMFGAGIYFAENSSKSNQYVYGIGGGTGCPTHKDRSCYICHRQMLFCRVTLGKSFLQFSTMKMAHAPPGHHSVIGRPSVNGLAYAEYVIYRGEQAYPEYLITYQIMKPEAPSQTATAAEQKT
T2 sequence (Q9H2K2 934-1166): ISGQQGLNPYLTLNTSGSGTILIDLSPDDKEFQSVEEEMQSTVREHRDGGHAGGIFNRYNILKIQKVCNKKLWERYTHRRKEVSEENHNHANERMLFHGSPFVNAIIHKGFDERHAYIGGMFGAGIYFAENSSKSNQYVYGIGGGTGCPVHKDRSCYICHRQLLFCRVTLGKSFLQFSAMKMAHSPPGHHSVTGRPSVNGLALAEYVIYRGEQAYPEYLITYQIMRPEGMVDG

Take `Cn1ncc2c(=O)[nH]c(N3CCN(c4c(Cl)cccc4Cl)CC3)nc21` [Compound I-42, 6-[4-(2 6-dichlorophenyl)piperazin-1-yl]-1-methyl-5H-pyrazolo[3 4-d]pyrimidin-4-one]: the results for the half-inhibitory concentration (IC50) in assay [1] and in assay [2] were 24 nM and 26.3 nM, respectively.

With `Cn1ncc2c(=O)[nH]c(N3CCN(c4c(F)cccc4F)CC3)cc21` [Compound I-51, 6-[4-(2 6-difluorophenyl)piperazin-1-yl]-1-methyl-5H-pyrazolo[4 3-c]pyridin-4-one], the values for the IC50 in assay [1] and in assay [2] were 25 nM and 23.1 nM, respectively.

In the case of `Cn1ncc2c(=O)[nH]c(-c3ccc(C(F)(F)F)nc3)nc21` [Compound I-27, 1-methyl-6-[6-(trifluoromethyl)-3-pyridyl)-5H-pyrazolo[3 4-d]pyrimidin-4-one], the IC50 was determined as 385 nM in assay [1] and 428 nM in assay [2].

As to `O=c1[nH]c(N2CCN(c3ccccc3F)CC2)cc2[nH]ncc12` [Compound I-12, 6-[4-(2-fluorophenyl)piperazin-1-yl]-1 5-dihydropyrazolo[4 3-c]pyridin-4-one], the IC50 in assay [1] came out at 105 nM; in assay [2] it was 176 nM.

For `Cn1ncc2c(=O)[nH]c(N3CCN(c4ccc(S(N)(=O)=O)cc4F)CC3)nc21` [Compound I-48, 3-fluoro-4-[4-(1-methyl-4-oxo-5H-pyrazolo[3 4-d]pyrimidin-6-yl)piperazin-1-yl]benzenesulfonamide], the 50% inhibitory concentration (IC50) in assay [1] amounted to 34 nM; in assay [2] it was 49.2 nM.

For `Cn1ncc2c(=O)[nH]c(N3CCC(O)(c4ccccc4)CC3)nc21` [Compound I-23, 6-(4-hydroxy-4-phenyl-1-piperidyl)-1-methyl-5H-pyrazolo[3 4-d]pyrimidin-4-one], the IC50 in assay [1] is 57 nM; in assay [2], 66.8 nM.

For `Cn1ncc2c(=O)[nH]c(N3CCC(C#N)(c4ccccn4)CC3)nc21` [Compound I-52, 1-(1-methyl-4-oxo-5H-pyrazolo[3 4-d]pyrimidin-6-yl)-4-(2-pyridyl)piperidine-4-carbonitrile], the figures for the IC50 in assay [1] and in assay [2] were 47 nM and 54.5 nM, respectively.

On to `Cn1ncc2c(=O)[nH]c(N3CCN(c4ccc(S(C)(=O)=O)cc4F)CC3)nc21` [Compound I-21, 6-[4-(2-fluoro-4-methylsulfonyl-phenyl)piperazin-1-yl]-1-methyl-5H-pyrazolo[3 4-d]pyrimidin-4-one], for which the IC50 worked out at 55 nM in assay [1] and 81.5 nM in assay [2].

As for `Cn1ncc2c(=O)[nH]c(-c3ccc(C(F)(F)F)nc3)cc21` [Compound I-29, 1-methyl-6-[6-(trifluoromethyl)-3-pyridyl]-5H-pyrazolo[4 3-c]pyridin-4-one], the figures for the IC50 in assay [1] and in assay [2] were 151 nM and 104 nM, respectively.
